Assays:
[1] = tested on: neutrophils; assay: Neutrophil count (CBC), Renca-transplanted mice, lenalidomide or hydroxyurea (Exp. Ex. 17); type: in vivo, mouse; conditions: day 5, 30 mg/kg i.p. daily, compared with group administered saline
Method: Balb/c mice (female, 8-week-old) purchased from Orient Bio (Busan, Korea) were subjected to a one-week acclimatization period, and then allografted with Renca cancer cell line (Korea Cell Line Bank) at 5×10^6 cells. After another one-week acclimatization period, the mice were divided into 3 groups (n=3) and administered intraperitoneally with saline, hydroxyurea (30 mg/kg), and lenalidomide (30 mg/kg), respectively, daily from 1 day before the administration of the oncolytic virus to day 4 after the administration.
As a result of performing a complete blood count (CBC) by sacrificing the mice in each group on day 5 after administering the oncolytic virus, it was confirmed that the neutrophil count of the mice in the group administered with lenalidomide was reduced as compared with the group administered with saline, except for one outlier mouse.

[2] = tested on: neutrophils; type: in vivo, mouse; conditions: Renca mice; day 8; compared with negative control group (saline); hydroxyurea 30 mg/kg i.p.

Row | Structure (SMILES) | neutrophil count [1] | absolute neutrophil count (ANC) [2]
1 | Nc1cccc2c1CN(C1CCC(=O)NC1=O)C2=O (stereo not drawn) [lenalidomide] | reduced | –
2 | NC(=O)NO [hydroxyurea] | significantly lower | decreased
